# Reference: patent publication US5352602A, “Isoamylase and process for producing the same” (Amano Pharmaceutical Co., Ltd., priority 1992, dated 1994)
# Entries after “also recorded” stand apart in the source; their conditions may differ. Read-outs that look alike come from different tables or passages of the source.
# Columns and labels:
# [1] = system: isoamylase of Xanthomonas maltophilia S-517; assay: Influence of inhibitors and metal salts on isoamylase activity; assay type: biochemical; details: for Inhibition by Metal Salt: Table 3, isoamylase of Xanthomonas maltophilia S-517 (Invention); for Inhibition of the enzyme of the present invention: in words
# Description: Measurements of activity of the enzyme of the present invention were made as follows in accordance with the method of Maruo-Kobayashi (see NIHON NOGEI KAISHI, Vol. 23, pp. 115-120 (1949).
# A reaction system consisting of 2.0 ml of a 1.0% soluble starch (glutinous rice) solution, 0.4 ml of a 0.5M acetate buffer solution (pH=3.5), and 0.4 ml of an enzyme liquid was allowed to react at 40° C. for 30 minutes. To the reaction system was added 0.4 ml of a 0.01N iodine solution. After dilution with water to 10 ml, the absorbance at 610 nm was measured. The enzyme activity on an absorbance increase of 0.1 within 1 hour was taken as 10 units.
# [2] = system: isoamylase of Pseudomonas origin; details: cited from earlier work; for Inhibition by Metal Salt: Table 3, isoamylase of Pseudomonas origin; for Inhibition of the enzyme derived from Pseudomonas: in words
# [3] = system: isoamylase of Xanthomonas maltophilia S-517; assay: Substrate specificity of the purified isoamylase; assay type: biochemical; details: for Substrate specificity: in words; for Initial Velocity: relative, glycogen = 100; for V: velocity of the purified isoamylase on the named substrate
molecule,measurement,setting,value
O=[N+]([O-])c1ccc(O)c(CBr)c1 [2-Hydroxy-5-nitrobenzyl bromide],Percent Inhibition,[1]; inhibitor concentration 0.1 mM,14.3%
CC(=O)I [Acetyl monoiodide],Percent Inhibition,[1]; inhibitor concentration 0.1 mM,10.1%
same,Percent Inhibition,[1]; inhibitor concentration 5 mM,34.6%
O=[N+]([O-])[O-].[Ag+] [AgNO3],Percent Inhibition,[1]; inhibitor concentration 1 mM,98.0%
[Cl][Cu][Cl] [CuCl2],Percent Inhibition,[1]; inhibitor concentration 1 mM,20.7%
O=C(O)CN(CCN(CC(=O)O)CC(=O)O)CC(=O)O [EDTA],Percent Inhibition,[1]; inhibitor concentration 5 mM,0%
"O=C1O[C@H](CO)[C@@H](O)[C@H](O)[C@H]1O [Glucono-1,5-lactone]",Percent Inhibition,[1]; inhibitor concentration 10 mM,8.0%
[Cl][Hg][Cl] [HgCl2],Percent Inhibition,[1]; inhibitor concentration 1 mM,42.2%
[Cl-].[Cl-].[Mg+2] [MgCl2],Inhibition by Metal Salt,[1],26.3%
same,Inhibition of the enzyme of the present invention,[1],inhibited
same,Percent Inhibition,[1]; inhibitor concentration 1 mM,26.3%
same,Inhibition by Metal Salt,[2],0%
same,Inhibition of the enzyme derived from Pseudomonas,[2],not inhibited
O=C1CCC(=O)N1Br [N-Bromosuccinimide],Percent Inhibition,[1]; inhibitor concentration 0.01 mM,100.0%
[Cl-].[Na+] [NaCl],Percent Inhibition,[1],0%
[F-].[Na+] [NaF],Inhibition by Metal Salt,[1],0%
same,Inhibition of the enzyme of the present invention,[1],not inhibited
same,Percent Inhibition,[1]; inhibitor concentration 1 mM,0%
same,Inhibition by Metal Salt,[2],19%
same,Inhibition of the enzyme derived from Pseudomonas,[2],inhibited
O=C(O)c1cc[c]([Hg][Cl])cc1 [PCMB],Inhibition by Metal Salt,[1],0%
same,Inhibition of the enzyme of the present invention,[1],not inhibited
same,Percent Inhibition,[1]; inhibitor concentration 1 mM,0%
same,Inhibition by Metal Salt,[2],34%
same,Inhibition of the enzyme derived from Pseudomonas,[2],inhibited
I[I-]I.[K+] [Potassium iodoiodide],Percent Inhibition,[1]; inhibitor concentration 1 mM,4.5%
O=C1CCC(=O)O1 [Succinic anhydride],Percent Inhibition,[1]; inhibitor concentration 5 mM,8.4%
OCCS [β-Mercaptoethanol],Percent Inhibition,[1]; inhibitor concentration 10 mM,31.7%
Ammonium molybdate,Percent Inhibition,[1]; inhibitor concentration 1 mM,0%
Amylopectin,Substrate specificity,[3],acts
same,Initial Velocity,[3],34.7%
same,V,[3],2.18 × 10^-1 μmol/min/U
Glycogen,Substrate specificity,[3],actively acts
same,Initial Velocity,[3],100%
same,V,[3],6.28 × 10^-1 μmol/min/U
Pullulan,Substrate specificity,[3],does not act; also recorded: hardly acts
same,Initial Velocity,[3],1.3%
same,V,[3],8.45 × 10^-3 μmol/min/U
